# Results taken from US20130165417A1, “METHODS AND COMPOSITIONS FOR TREATING ACE2-RELATED DISORDERS” (UNIVERSITY OF FLORIDA RESEARCH FOUNDATION, priority 2010, published 2013).
# “Also recorded” adds a separate entry of the source.
# Tests used:
# Recombinant ACE = target: T1, Recombinant ACE (Homo sapiens, UniProt P12821); assay: ACE activity assay with fluorogenic peptide substrate; format: biochemical; settings: FIG. 2
# T1 construct: purchased R&D Systems, Minneapolis, Minn; 929-ZN-10
# Experimental: (§1) Recombinant ACE and ACE2 are obtained in purified form from R&D Systems, Minneapolis, Minn. (catalog ID: 929-ZN-10 and 933-ZN-10, respectively). Substrates for ACE (fluorogenic peptide V, Mca-[…](Dnp)-OH, catalog ID: ES005), and for ACE2 (fluorogenic peptide VI, Mca-YVADAPK(Dnp)-OH, catalog ID: ES007) are obtained from R&D systems. Dry compounds are resuspended in 100% DMSO to prepare 100 mM stock solutions, according to the amount of compound and its molecular weight. Gentle heating to 60-80° C. is carried out to assist their solubilization. Compounds are further diluted to 50 mM stocks if clearly difficult to dissolve.
# (§2) Activity of ACE and ACE2 are measured with a Spectra Max Gemini EM Florescence Reader (Molecular Devices). The enzyme removes the c-terminal dinitrophenyl moiety that quenches the inherent fluorescence of its 7-methoxycoumain group, resulting in an increase in fluorescence in the presence of enzyme activity. Fluorescence is measured with excitation and emission spectra of 328 nm and 392 nm, respectively. Reaction mixtures are prepared in 100 μl volumes and different concentrations of compound are tested against 10 μM substrate. 10 nM enzyme in 100 mM NaCl, 75 mM Tris, 0.5 μM ZnCl2, at pH 7.4. Samples are read every 15-20 seconds for at least 30 minutes immediately after the addition of fluorogenic peptide substrate at 37° C. […]
# Wistar Kyoto rats (WKYs) = assay: Direct blood pressure and heart rate measurement after IV bolus, WKY rats; format: in vivo, rat
# Experimental: (§3) Male Wistar-Kyoto (WKY) rats and spontaneously hypertensive rats (SHRs) were purchased from Charles River Laboratories (Wilmington, Mass., USA). All procedures were performed in conformity with approved Institutional Animal Care and Use Committee protocols and University of Florida regulations.
# (§4) Cannulation of the animals (WKY rats and SHRs) was performed 24 h prior to the start of the drug administration and direct blood pressure (BP) measurement. Animals were anesthetized with a mixture of ketamine, xylazine, and acepromazine (30, 6, and 1 mg/kg, respectively). The two types of the cannulae used were: 1) a polyethylene cannula (PE-50, Clay Adams) introduced into the carotid artery for direct BP measurements and 2) a silicone elastomer cannula (Helix Medical) introduced into the descending jugular vein for acute intravenous (IV) bolus injections of the drug. Both cannulae were filled with heparin saline (40 U/mL, Sigma), and sealed with stylets. The IV drug administration of diminazene aceturate (DIZE) (LKT laboratories, St. Paul, Minn., USA) and the dose-response curves in WKYs and SHRs were obtained in awake, freely moving animals after a 24 h recovery period. Doses of diminazene aceturate (DIZE) (0.04, […], 0.6, 1.25, 2.5, 5 and 10 mg/kg) were administered as an IV bolus via the jugular cannula, and BP data recording was interfaced by a PowerLab (ADlnstruments) signal transduction unit. The data analysis was done using the Chart program (PowerLab system).
# [1] = tested on: spontaneously hypertensive rats (SHRs); assay: Direct blood pressure and heart rate measurement after IV bolus, SHRs; format: in vivo, rat
# Experimental: as §3, §4
# [2] = tested on: monocrotaline (MCT) treated rats; assay: Monocrotaline (MCT) treated rats, pulmonary hypertension; format: in vivo, rat
# [3] = tested on: models of pulmonary hypertension; assay: Two models of pulmonary hypertension; format: in vivo
# myocardial infarction = assay: Myocardial infarction model of cardiac disease; format: in vivo
# [4] = tested on: Endothelial progenitor cells harvested from pulmonary hypertensive patients; assay: Function of endothelial progenitor cells from pulmonary hypertensive patients; format: cell-based, human
# Description: Another important finding is the effect of DIZE on stem cell function. Endothelial progenitor cells harvested from pulmonary hypertensive patients are dysfunctional and have decreased ability to repair vascular damage induced by the disease.
# ACE2 [5] = target: T2, ACE2 (Homo sapiens, UniProt Q9BYF1); assay: ACE2 activity assay with fluorogenic peptide substrate; format: biochemical; design: purchased R&D Systems, Minneapolis, Minn; 933-ZN-10
# Experimental: as §1, §2
# Target sequence in this assay (Q9BYF1 18-740 limits assumed): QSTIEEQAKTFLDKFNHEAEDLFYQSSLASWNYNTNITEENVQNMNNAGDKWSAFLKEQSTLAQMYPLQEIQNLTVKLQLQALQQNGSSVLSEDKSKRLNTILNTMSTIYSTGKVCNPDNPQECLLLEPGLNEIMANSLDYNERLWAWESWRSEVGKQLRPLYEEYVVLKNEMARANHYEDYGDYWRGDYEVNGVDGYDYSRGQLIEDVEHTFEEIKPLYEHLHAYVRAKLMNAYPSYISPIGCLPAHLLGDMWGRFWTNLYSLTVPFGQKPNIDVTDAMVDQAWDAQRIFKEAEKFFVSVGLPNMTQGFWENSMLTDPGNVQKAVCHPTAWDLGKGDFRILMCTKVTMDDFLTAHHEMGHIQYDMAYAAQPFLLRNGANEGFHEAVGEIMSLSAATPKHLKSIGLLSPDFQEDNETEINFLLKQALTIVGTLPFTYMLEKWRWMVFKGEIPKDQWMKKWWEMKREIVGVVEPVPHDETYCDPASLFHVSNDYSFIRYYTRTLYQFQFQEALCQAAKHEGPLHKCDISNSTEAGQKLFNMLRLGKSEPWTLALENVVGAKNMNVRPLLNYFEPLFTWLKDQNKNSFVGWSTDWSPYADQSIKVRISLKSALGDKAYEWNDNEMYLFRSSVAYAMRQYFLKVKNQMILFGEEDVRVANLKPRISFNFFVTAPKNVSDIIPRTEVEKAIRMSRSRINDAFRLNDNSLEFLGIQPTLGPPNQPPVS
# ACE2 [6] = target: T2, ACE2; settings: Donoghue et al. 2000, Tipnis et al. 2000; cited from earlier work
# Target sequence in this assay (Q9BYF1 18-805): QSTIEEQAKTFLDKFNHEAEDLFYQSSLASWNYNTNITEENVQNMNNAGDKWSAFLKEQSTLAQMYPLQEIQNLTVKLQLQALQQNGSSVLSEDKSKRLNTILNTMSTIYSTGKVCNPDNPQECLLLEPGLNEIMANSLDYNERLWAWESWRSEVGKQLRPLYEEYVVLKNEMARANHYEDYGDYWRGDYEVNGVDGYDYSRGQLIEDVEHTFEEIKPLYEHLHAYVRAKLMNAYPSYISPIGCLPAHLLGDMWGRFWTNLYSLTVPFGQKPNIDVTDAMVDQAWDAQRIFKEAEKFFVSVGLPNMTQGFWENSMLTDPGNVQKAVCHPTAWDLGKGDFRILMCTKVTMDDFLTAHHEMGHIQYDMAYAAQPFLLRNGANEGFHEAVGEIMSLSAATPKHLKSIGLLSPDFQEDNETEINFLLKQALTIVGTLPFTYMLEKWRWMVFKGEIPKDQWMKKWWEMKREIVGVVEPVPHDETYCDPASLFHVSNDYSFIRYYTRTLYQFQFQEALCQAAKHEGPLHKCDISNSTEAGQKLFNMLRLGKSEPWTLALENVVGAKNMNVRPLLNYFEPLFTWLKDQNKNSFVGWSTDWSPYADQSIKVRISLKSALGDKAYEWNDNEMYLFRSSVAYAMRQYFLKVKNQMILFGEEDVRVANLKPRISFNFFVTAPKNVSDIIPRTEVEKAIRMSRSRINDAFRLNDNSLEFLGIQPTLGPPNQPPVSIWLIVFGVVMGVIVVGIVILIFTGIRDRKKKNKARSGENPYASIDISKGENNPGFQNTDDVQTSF
# T1 sequence (P12821 30-1306): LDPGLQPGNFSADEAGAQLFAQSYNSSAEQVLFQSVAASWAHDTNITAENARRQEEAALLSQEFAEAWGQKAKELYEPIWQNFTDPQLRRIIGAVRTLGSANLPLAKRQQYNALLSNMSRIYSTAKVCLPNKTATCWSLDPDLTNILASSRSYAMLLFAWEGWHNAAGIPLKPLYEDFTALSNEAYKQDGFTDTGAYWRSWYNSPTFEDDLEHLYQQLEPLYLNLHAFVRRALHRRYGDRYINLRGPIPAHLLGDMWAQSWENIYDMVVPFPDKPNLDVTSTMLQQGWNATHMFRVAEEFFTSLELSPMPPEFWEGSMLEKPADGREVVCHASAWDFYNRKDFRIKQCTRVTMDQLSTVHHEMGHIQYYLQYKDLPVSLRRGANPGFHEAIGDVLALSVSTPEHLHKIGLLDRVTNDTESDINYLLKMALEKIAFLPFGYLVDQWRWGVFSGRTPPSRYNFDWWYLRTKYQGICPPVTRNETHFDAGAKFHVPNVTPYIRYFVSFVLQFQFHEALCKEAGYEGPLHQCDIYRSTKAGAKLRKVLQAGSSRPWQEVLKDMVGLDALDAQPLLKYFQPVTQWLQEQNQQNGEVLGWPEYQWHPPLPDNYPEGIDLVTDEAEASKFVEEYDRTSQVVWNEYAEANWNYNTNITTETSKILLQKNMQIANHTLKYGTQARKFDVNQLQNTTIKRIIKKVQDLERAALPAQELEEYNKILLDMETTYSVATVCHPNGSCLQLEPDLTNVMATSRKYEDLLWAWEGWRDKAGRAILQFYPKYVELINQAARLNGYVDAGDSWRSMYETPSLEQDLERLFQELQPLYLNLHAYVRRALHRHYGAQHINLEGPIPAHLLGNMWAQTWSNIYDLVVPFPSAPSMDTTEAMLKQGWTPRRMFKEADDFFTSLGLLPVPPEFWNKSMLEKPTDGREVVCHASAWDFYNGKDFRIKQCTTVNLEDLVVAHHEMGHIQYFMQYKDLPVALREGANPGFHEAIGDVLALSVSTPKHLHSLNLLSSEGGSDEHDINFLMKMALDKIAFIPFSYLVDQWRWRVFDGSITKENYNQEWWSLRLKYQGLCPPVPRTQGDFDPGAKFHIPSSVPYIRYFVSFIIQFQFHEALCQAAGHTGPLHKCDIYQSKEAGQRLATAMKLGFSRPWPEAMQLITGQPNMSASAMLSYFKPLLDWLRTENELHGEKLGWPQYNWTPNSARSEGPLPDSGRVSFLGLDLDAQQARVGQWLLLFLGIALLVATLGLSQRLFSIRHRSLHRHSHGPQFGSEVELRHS
smiles,measurement,setting,value
"N=C(N)c1ccc(N=NNc2ccc(C(=N)N)cc2)cc1 [DIZE, 4,4′-(1-Triazene-1,3-diyl)bis(benzenecarboximidamide)]",effect on ACE activity,Recombinant ACE,increases ACE2 but not ACE activity
same,reduction of mean arterial pressure (MAP),"Wistar Kyoto rats (WKYs); WKY rats, 5 mg/kg intravenous, n=6",50±9 mmHg
same,effect on heart rate,"Wistar Kyoto rats (WKYs); WKY, acute IV bolus",does not affect the heart rate
same,change in mean arterial pressure (MAP),"Wistar Kyoto rats (WKYs); WKYs, intravenous administration, result in words",transient and dose dependent decrease
same,effect on heart rate,"[1]; SHR, acute IV bolus",does not affect the heart rate
same,reduction of mean arterial pressure (MAP),"[1]; SHRs, 5 mg/kg intravenous, n=6",85±11 mmHg
same,change in mean arterial pressure (MAP),"[1]; SHRs, intravenous administration, result in words",transient and dose dependent decrease; also recorded: greater reduction in blood pressure in SHRs compared to WKY control rats
same,MCT-induced right ventricular fibrosis,[2]; FIG. 6,causes reversal
same,"Right Ventricular Systolic Pressure (RVSP) and Right Ventricular Hypertrophy (RVH), prevention","[2]; MCT treated rats, FIG. 4",prevents increase
same,"RVSP and RVH, reversal","[2]; MCT-treated rats, FIG. 5",reverses increases
same,progression of pathophysiology,[3]; administered after the development of pulmonary hypertension,arrested
same,development of the disorder,[3]; pretreatment,completely prevents the development of these disorders
same,fibrosis,[3]; pretreatment,virtually absent
same,pulmonary pressure,[3]; pretreatment,nearly normalized
same,MI-induced cardiac dysfunctions,myocardial infarction; FIG. 3,attenuates
same,cardiac function,myocardial infarction; pretreatment,significantly improves cardiac function
same,development of the disorder,myocardial infarction; pretreatment,completely prevents the development of these disorders
same,infarct area,myocardial infarction; pretreatment,reduces infarct area
same,endothelial progenitor cell dysfunction (ability to repair vascular damage),[4],significantly improves this dysfunction
same,maximal increase in ACE2 activity (Vmax),ACE2 [5]; observed with 50 μM,2.3 fold
same,effect on ACE2 activity,ACE2 [5]; result in words,dose-dependent increase in ACE2 activity; also recorded: enhances specifically the ACE2 enzyme activity
C[C@H](CS)C(=O)N1CCC[C@H]1C(=O)O [captopril],effect on activity of ACE2,ACE2 [6],do not significantly affect
